{"source": "PubChem BioAssay (NCI)", "test_in_all_cases": "DTP human tumour cell line panel, 48 h", "key": {"MALME-3M melanoma": {"system": "MALME-3M melanoma"}, "U251 CNS": {"system": "U251 CNS"}, "RPMI-8226 leukemia": {"system": "RPMI-8226 leukemia"}, "SF-295 CNS": {"system": "SF-295 CNS"}, "RXF 393 renal": {"system": "RXF 393 renal"}, "OVCAR-8 ovarian": {"system": "OVCAR-8 ovarian"}, "HCT-116 colon": {"system": "HCT-116 colon"}, "LOX IMVI melanoma": {"system": "LOX IMVI melanoma"}, "KM12 colon": {"system": "KM12 colon"}, "OVCAR-4 ovarian": {"system": "OVCAR-4 ovarian"}, "UO-31 renal": {"system": "UO-31 renal"}, "DU-145 prostate": {"system": "DU-145 prostate"}, "IGROV1 ovarian": {"system": "IGROV1 ovarian"}, "SK-MEL-28 melanoma": {"system": "SK-MEL-28 melanoma"}, "SF-268 CNS": {"system": "SF-268 CNS"}, "SN12C renal": {"system": "SN12C renal"}, "HT29 colon": {"system": "HT29 colon"}, "HCC-2998 colon": {"system": "HCC-2998 colon"}, "MDA-MB-435": {"system": "MDA-MB-435"}, "SNB-75 CNS": {"system": "SNB-75 CNS"}, "M14 melanoma": {"system": "M14 melanoma"}, "NCI-H226 lung": {"system": "NCI-H226 lung"}, "SR leukemia": {"system": "SR leukemia"}, "HOP-62 NSCLC": {"system": "HOP-62 NSCLC"}, "UACC-62 melanoma": {"system": "UACC-62 melanoma"}, "PC-3 prostate": {"system": "PC-3 prostate"}, "HL-60(TB) leukemia": {"system": "HL-60(TB) leukemia"}, "SK-MEL-2 melanoma": {"system": "SK-MEL-2 melanoma"}, "NCI-H522 lung": {"system": "NCI-H522 lung"}, "MCF7 breast": {"system": "MCF7 breast"}, "SF-539 CNS": {"system": "SF-539 CNS"}, "K-562 leukemia": {"system": "K-562 leukemia"}, "SK-MEL-5 melanoma": {"system": "SK-MEL-5 melanoma"}, "EKVX NSCLC": {"system": "EKVX NSCLC"}, "SK-OV-3 ovarian": {"system": "SK-OV-3 ovarian"}, "A549 NSCLC": {"system": "A549 NSCLC"}, "ACHN renal": {"system": "ACHN renal"}, "HS 578T breast": {"system": "HS 578T breast"}, "CAKI-1 renal": {"system": "CAKI-1 renal"}, "T-47D breast": {"system": "T-47D breast"}, "COLO 205 colon": {"system": "COLO 205 colon"}, "NCI/ADR-RES ovarian": {"system": "NCI/ADR-RES ovarian"}, "A498 renal": {"system": "A498 renal"}, "MDA-N": {"system": "MDA-N"}, "MOLT-4 leukemia": {"system": "MOLT-4 leukemia"}, "MDA-MB-231 breast": {"system": "MDA-MB-231 breast"}, "NCI-H23 lung": {"system": "NCI-H23 lung"}, "OVCAR-5 ovarian": {"system": "OVCAR-5 ovarian"}, "CCRF-CEM leukemia": {"system": "CCRF-CEM leukemia"}, "HCT-15 colon": {"system": "HCT-15 colon"}, "UACC-257 melanoma": {"system": "UACC-257 melanoma"}, "SW-620 colon": {"system": "SW-620 colon"}, "786-0 renal": {"system": "786-0 renal"}}, "note": "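Grown in 96-well plates, cells were treated for 48 hours with each compound at five concentrations. Insufficient inhibition: endpoint recorded as highest concentration tested. TGI: total growth inhibition.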", "data": [{"smiles": "CCOC(=O)C(/C=N\\C(=S)Nc1c(CC)cccc1C(C)(C)C)=C(/O)c1ccccc1", "values": [{"measurement": "TGI", "setting": "MALME-3M melanoma", "result": "> 100", "unit": "µM"}, {"measurement": "TGI", "setting": "U251 CNS", "result": "> 100", "unit": "µM"}, {"measurement": "TGI", "setting": "RPMI-8226 leukemia", "result": "> 100", "unit": "µM"}, {"measurement": "TGI", "setting": "SF-295 CNS", "result": "> 100", "unit": "µM"}, {"measurement": "TGI", "setting": "RXF 393 renal", "result": "> 100", "unit": "µM"}, {"measurement": "TGI", "setting": "OVCAR-8 ovarian", "result": "> 100", "unit": "µM"}, {"measurement": "TGI", "setting": "HCT-116 colon", "result": "> 100", "unit": "µM"}, {"measurement": "TGI", "setting": "LOX IMVI melanoma", "result": "> 100", "unit": "µM"}, {"measurement": "TGI", "setting": "KM12 colon", "result": "> 100", "unit": "µM"}, {"measurement": "TGI", "setting": "OVCAR-4 ovarian", "result": "> 100", "unit": "µM"}, {"measurement": "TGI", "setting": "UO-31 renal", "result": "> 100", "unit": "µM"}, {"measurement": "TGI", "setting": "DU-145 prostate", "result": "> 100", "unit": "µM"}, {"measurement": "TGI", "setting": "IGROV1 ovarian", "result": "> 100", "unit": "µM"}, {"measurement": "TGI", "setting": "SK-MEL-28 melanoma", "result": "> 100", "unit": "µM"}, {"measurement": "TGI", "setting": "SF-268 CNS", "result": "> 100", "unit": "µM"}, {"measurement": "TGI", "setting": "SN12C renal", "result": "> 100", "unit": "µM"}, {"measurement": "TGI", "setting": "HT29 colon", "result": "> 100", "unit": "µM"}, {"measurement": "TGI", "setting": "HCC-2998 colon", "result": "> 100", "unit": "µM"}, {"measurement": "TGI", "setting": "MDA-MB-435", "result": "> 100", "unit": "µM"}, {"measurement": "TGI", "setting": "SNB-75 CNS", "result": "> 100", "unit": "µM"}, {"measurement": "TGI", "setting": "M14 melanoma", "result": "> 100", "unit": "µM"}, {"measurement": "TGI", "setting": "NCI-H226 lung", "result": "> 100", "unit": "µM"}, {"measurement": "TGI", "setting": "SR leukemia", "result": "> 100", "unit": "µM"}, {"measurement": "TGI", "setting": "HOP-62 NSCLC", "result": "> 100", "unit": "µM"}, {"measurement": "TGI", "setting": "UACC-62 melanoma", "result": "> 100", "unit": "µM"}, {"measurement": "TGI", "setting": "PC-3 prostate", "result": "> 100", "unit": "µM"}, {"measurement": "TGI", "setting": "HL-60(TB) leukemia", "result": "> 100", "unit": "µM"}, {"measurement": "TGI", "setting": "SK-MEL-2 melanoma", "result": "> 100", "unit": "µM"}, {"measurement": "TGI", "setting": "NCI-H522 lung", "result": "> 100", "unit": "µM"}, {"measurement": "TGI", "setting": "MCF7 breast", "result": "> 100", "unit": "µM"}, {"measurement": "TGI", "setting": "SF-539 CNS", "result": "> 100", "unit": "µM"}, {"measurement": "TGI", "setting": "K-562 leukemia", "result": "> 100", "unit": "µM"}, {"measurement": "TGI", "setting": "SK-MEL-5 melanoma", "result": "> 100", "unit": "µM"}, {"measurement": "TGI", "setting": "EKVX NSCLC", "result": "> 100", "unit": "µM"}, {"measurement": "TGI", "setting": "SK-OV-3 ovarian", "result": "> 100", "unit": "µM"}, {"measurement": "TGI", "setting": "A549 NSCLC", "result": "> 100", "unit": "µM"}, {"measurement": "TGI", "setting": "ACHN renal", "result": "> 100", "unit": "µM"}, {"measurement": "TGI", "setting": "HS 578T breast", "result": 87.5, "unit": "µM"}, {"measurement": "TGI", "setting": "CAKI-1 renal", "result": "> 100", "unit": "µM"}, {"measurement": "TGI", "setting": "T-47D breast", "result": "> 100", "unit": "µM"}, {"measurement": "TGI", "setting": "COLO 205 colon", "result": "> 100", "unit": "µM"}, {"measurement": "TGI", "setting": "NCI/ADR-RES ovarian", "result": "> 100", "unit": "µM"}, {"measurement": "TGI", "setting": "A498 renal", "result": "> 100", "unit": "µM"}, {"measurement": "TGI", "setting": "MDA-N", "result": "> 100", "unit": "µM"}, {"measurement": "TGI", "setting": "MOLT-4 leukemia", "result": "> 100", "unit": "µM"}, {"measurement": "TGI", "setting": "MDA-MB-231 breast", "result": "> 100", "unit": "µM"}, {"measurement": "TGI", "setting": "NCI-H23 lung", "result": "> 100", "unit": "µM"}, {"measurement": "TGI", "setting": "OVCAR-5 ovarian", "result": "> 100", "unit": "µM"}, {"measurement": "TGI", "setting": "CCRF-CEM leukemia", "result": "> 100", "unit": "µM"}, {"measurement": "TGI", "setting": "HCT-15 colon", "result": "> 100", "unit": "µM"}, {"measurement": "TGI", "setting": "UACC-257 melanoma", "result": "> 100", "unit": "µM"}, {"measurement": "TGI", "setting": "SW-620 colon", "result": "> 100", "unit": "µM"}, {"measurement": "TGI", "setting": "786-0 renal", "result": "> 100", "unit": "µM"}]}]}
